{"source": "patent US7332482B2", "about": "“Method for treating benign prostatic hyperplasia” (BioXell S.p.A., priority 2003, dated 2008)", "key": {"[1]": {"tested_on": "BPH cells", "test": "In situ end labeling (ISEL) of apoptotic BPH cells", "assay_type": "cell-based, human", "experimental": "(§1) Human BPH cells, prepared, maintained and used as previously described in Crescioli C, et al. Journal of Clinical and Endocrinology Metabolism (2000) 85 p 2576-2583, were obtained from prostate tissues derived from 5 patients, who underwent suprapubic adenomectomy for BPH, after informed consent and approval by the Local Ethical Committee.\nISEL was performed onto BPH cells using Apop Tag in situ apoptosis detection kit peroxydase following the manufacturer's instruction. Cells were incubated with T (10 nM), KGF (10 ng/ml) or Des(1-3)IGF-I (10 ng/ml) with or without Compound A (10 nM). The percentage of apoptotic cells (the number of stained cells divided by the total number of cells) was calculated in at least five separate fields per slide in five different slides. Results are expressed as mean±SEM from three separate experiments."}, "[2]": {"tested_on": "prostate volume in patients with BPH", "test": "Randomised double blind placebo controlled study in patients with BPH", "assay_type": "in vivo, human", "experimental": "A randomised double blind placebo controlled parallel group study was performed to determine the effect of Compound A (1-alpha-fluoro-25-hydroxy-16,23E-diene-26,27-bishomo-20-epi-cholecalciferol) in patients with BPH.\nThe principal inclusion criterion was that male patients be diagnosed with BPH and have prostate volume >40 ml as determined by transrectal ultrasound (TRUS).\nStatistical methods: primary efficacy analyses were planned on Per-Protocol (PP) Population and, as support, the same analyses were to be done on Intent-to-treat population. Patients evaluatable for the Per-Protocol analysis were all randomized patients compliant to protocol criteria who completed the whole course of study without major protocol violations and have valid assessments of prostate volume. Patients valid for intent-to-treat (ITT) population were all randomized patients who received at least one dose of trial medication and for whom the prostate volume at baseline and at 12 weeks visit were available.\nAll patients randomized who took at least one dose of study drug were evaluated for safety analysis.\nThe primary efficacy variable was the percentage change of prostate volume, measured by centralized MRI axial scanning. An ANOVA model was used for the analysis, with treatment and center as fixed effects.\nStudy participants received 150 μg capsule (as per Example 4A with drug omitted in the case of placebo) once daily in the morning. The treatment period was 12 weeks."}, "[3]": {"tested_on": "BPH cells", "test": "BPH cell proliferation assay", "assay_type": "cell-based, human", "settings": "48 h", "experimental": "as §1\nFor all cell proliferation assay, 4×10^4 BPH cells were seeded onto 12-well plates in their growth medium, starved in red- and serum-free medium containing 0.1% BSA for 24 h, and then treated with specific stimuli for 48 h. Cells in phenol red- and serum-free medium containing 0.1% BSA were used as controls. Thereafter, cells were trypsinized, and each experimental point was derived from hemocytometer counting, averaging at least six different fields for each well, as previously reported (see Crescioli C, et al. Journal of Clinical and Endocrinology Metabolism (2000) 85 p 2576-2583). […] Growth assays were also carried out using a fixed concentration of androgens (10 nM) with or without Compound A (1 nM, 10 nM) or the anti-androgens finasteride (F, 1 nM) and cyproterone acetate (Cyp, 100 nM). Growth assays were also performed using a fixed concentration of T (10 nM) or GFs (10 ng/ml) with or without Compound A (10 nM). In the same experiment, each experimental point was repeated in triplicate or quadruplicate and experiments were performed 3 times. Results are expressed as % variation (mean±SEM) over the maximal T or GF-induced stimulation."}, "[4]": {"test": "Serum calcium measurement in rats", "assay_type": "in vivo, rat", "settings": "for calcemia: T-replaced castrated rats", "experimental": "Male Sprague Dawley rats (28 days old) were purchased from Charles River Laboratories (Calco, Lecco, Italy). All animal experimentation described was conducted in accord with accepted standards of animal care. Castration was performed via the scrotal route under ketamine/xylazine anaesthesia.\nSerum calcium levels were measured with a commercially available colorimetric assay (Sigma), according to the manufacturers' instructions."}, "[5]": {"tested_on": "prostate", "test": "9-month toxicity study in male beagle dogs (prostate weight)", "assay_type": "in vivo, dog", "experimental": "A 9-month toxicity study was carried out in four groups of male beagle dogs, which were treated by daily oral gavage with 0.5 μg, 1.5 μg and 5 μg/kg body weight/day of Compound A (in vehicle Miglyol 812) or with vehicle alone. This treatment was followed by a 2-month recovery period for the group receiving the highest dose, 5 μg, after which prostate weights was measured."}}, "note": "“Also recorded” adds a separate entry of the source. Marks after values point to notes of the source that are not given here.", "data": [{"smiles": "C=C1/C(=C\\C=C2/CCC[C@]3(C)C([C@@H](C)C/C=C/C(O)(CC)CC)=CC[C@@H]23)C[C@@H](O)C[C@@H]1F", "note": "[Compound A, 1-alpha-fluoro-25-hydroxy-16,23E-diene-26,27-bishomo-20-epi-cholecalciferol]", "values": [{"measurement": "change in percentage of apoptotic nuclei vs untreated cells", "setting": "[1]; 48 h, Compound A 10 nM, T 10 nM, GFs 10 ng/ml", "value": 270, "unit": "%"}, {"measurement": "Apoptotic index (%)", "setting": "[1]; Compound A 10 nM alone, ISEL", "value": "68.44 ± 1.26^a %"}, {"measurement": "Apoptotic index (%)", "setting": "[1]; Compound A 10 nM with Des(1-3)IGF-I 10 ng/ml", "value": "45.85 ± 0.66^a,b,c %"}, {"measurement": "increase in number of ISEL-positive BPH cells in the presence of GFs or T", "setting": "[1]; Compound A 10 nM with GFs or T", "value": "more than 250%"}, {"measurement": "Apoptotic index (%)", "setting": "[1]; Compound A 10 nM with KGF 10 ng/ml", "value": "44.46 ± 0.57^a,b,c %"}, {"measurement": "Apoptotic index (%)", "setting": "[1]; Compound A 10 nM with T 10 nM", "value": "49.06 ± 1.87^a,b,c %"}, {"measurement": "severe adverse events", "setting": "[2]; 12 weeks", "value": "no severe adverse event was reported"}, {"measurement": "proportion of responders", "setting": "[2]; ITT population", "value": 28.8, "unit": "%"}, {"measurement": "reduction of prostate volume vs placebo", "setting": "[2]; ITT population, axial scanning", "value": "more effective than placebo"}, {"measurement": "mean difference of prostate volume vs baseline in non responder patients", "setting": "[2]; PP population", "value": "3.93±0.8"}, {"measurement": "mean difference of prostate volume vs baseline in unchanged patients", "setting": "[2]; PP population", "value": "−0.35±2.3"}, {"measurement": "mean reduction of prostate volume vs baseline in responder patients", "setting": "[2]; PP population", "value": "−6.88±2.5"}, {"measurement": "percentage change of prostate volume, paraxial acquisition", "setting": "[2]; PP population", "value": "−1.30±6.9", "unit": "%"}, {"measurement": "percentage change of prostate volume, transitional scanning", "setting": "[2]; PP population", "value": "−0.22±9.6", "unit": "%"}, {"measurement": "proportion of patients not responder", "setting": "[2]; PP population", "value": 7.5, "unit": "%"}, {"measurement": "proportion of responders", "setting": "[2]; PP population", "value": 27.5, "unit": "%"}, {"measurement": "proportion of unchanged patients", "setting": "[2]; PP population", "value": 65, "unit": "%"}, {"measurement": "percentage change in prostate volume, axial scanning", "setting": "[2]; PP population, 150 μg once daily, 12 weeks, MRI", "value": "−1.89±5.2", "unit": "%"}, {"measurement": "estimate of difference between treatments (Compound A minus placebo), percentage change in prostate volume", "setting": "[2]; PP population, axial scanning, 95% confidence limit −9.54 and −4.94", "value": "−7.24"}, {"measurement": "number of patients with adverse events related to treatment", "setting": "[2]; safety population", "value": 3}, {"measurement": "patients with adverse events related to treatment", "setting": "[2]; safety population", "value": 5.26, "unit": "%"}, {"measurement": "number of patients with at least one adverse event", "setting": "[2]; safety population, 57 randomised", "value": 17}, {"measurement": "calciuria values over the course of the study", "setting": "[2]; vs Placebo group", "value": "did not differ significantly"}, {"measurement": "effect on growth of androgen-unstimulated BPH cells", "setting": "[3]; Compound A 1 nM", "value": "reduced growth"}, {"measurement": "effect on DHT-stimulated BPH cell proliferation", "setting": "[3]; DHT 10 nM, Compound A 1 nM, F 1 nM, Cyp 100 nM", "value": "antagonized; also recorded: significantly blocked"}, {"measurement": "effect on T-stimulated BPH cell proliferation", "setting": "[3]; T 10 nM, Compound A 1 nM, F 1 nM, Cyp 100 nM", "value": "antagonized; also recorded: significantly blocked"}, {"measurement": "Imax, inhibition of T- or GF-stimulated BPH cell growth", "setting": "[3]; T 10 nM, KGF or Des(1-3)IGF-I 10 ng/ml", "value": "66.6±7.3", "unit": "%"}, {"measurement": "maximal inhibition (Imax) of BPH cell growth", "setting": "[3]; unstimulated BPH cells, Imax shared by both secosteroids", "value": "43±1", "unit": "%"}, {"measurement": "calcemia", "setting": "[4]; 10 μg/Kg", "value": "10.16 ± 0.24", "unit": "mg/dL"}, {"measurement": "calcemia", "setting": "[4]; 30 μg/Kg", "value": "9.87 ± 0.15", "unit": "mg/dL"}, {"measurement": "calcemia", "setting": "[4]; 100 μg/Kg", "value": "10.55 ± 0.18", "unit": "mg/dL"}, {"measurement": "calcemia", "setting": "[4]; 300 μg/Kg", "value": "10.85 ± 0.1", "unit": "mg/dL"}, {"measurement": "other side effects", "setting": "[4]; all rat protocols, oral", "value": "No other discernible side effects"}, {"measurement": "hypercalcemia", "setting": "[4]; all rat protocols, oral 10-300 μg/Kg", "value": "very modest hypercalcemia only at the highest dose tested"}, {"measurement": "prostate weight after recovery", "setting": "[5]; 5 μg/kg/day 9 months then 2-month recovery, vs vehicle", "value": "reduction of prostate weight"}, {"measurement": "toxicity data", "setting": "[5]; 9 months daily oral gavage", "value": "entirely favourable toxicity data"}, {"measurement": "prostate weight at end of treatment", "setting": "[5]; 9 months daily oral gavage, 0.5, 1.5, 5 μg/kg/day, vs vehicle", "value": "lower prostate weight; also recorded: clear reduction of prostate weight"}]}]}
